# From ChEMBL document CHEMBL1649580, “Mosaic penicillin-binding protein 2 in Neisseria gonorrhoeae isolates collected in 2008 in San Francisco, California” (2009)
# Key:
# Assay type in all cases: functional
# Neisseria gonorrhoeae [1] = test: Antibacterial activity against Neisseria gonorrhoeae isolate SM3 expressing SF-A mosaic penA allele by agar dilution method
# Neisseria gonorrhoeae [2] = test: Antibacterial activity against Neisseria gonorrhoeae isolate SM2 expressing SF-A mosaic penA allele by agar dilution method
# Neisseria gonorrhoeae [3] = test: Antibacterial activity against Neisseria gonorrhoeae isolate SW1 expressing nonmosaic penA allele by agar dilution method
# Neisseria gonorrhoeae [4] = test: Antibacterial activity against Neisseria gonorrhoeae isolate SM4 expressing SF-B mosaic penA allele by agar dilution method
# Neisseria gonorrhoeae [5] = test: Antibacterial activity against Neisseria gonorrhoeae isolate SW2 expressing nonmosaic penA allele by agar dilution method
# Neisseria gonorrhoeae [6] = test: Antibacterial activity against Neisseria gonorrhoeae isolate SM5 expressing SF-B mosaic penA allele by agar dilution method
# Neisseria gonorrhoeae [7] = test: Antibacterial activity against Neisseria gonorrhoeae isolate SM1 expressing SF-A mosaic penA allele by agar dilution method
Compound,MIC (Neisseria gonorrhoeae [1]) [µg/mL],MIC (Neisseria gonorrhoeae [2]) [µg/mL],MIC (Neisseria gonorrhoeae [3]) [µg/mL],MIC (Neisseria gonorrhoeae [4]) [µg/mL],MIC (Neisseria gonorrhoeae [5]) [µg/mL],MIC (Neisseria gonorrhoeae [6]) [µg/mL],MIC (Neisseria gonorrhoeae [7]) [µg/mL]
C=CC1=C(C(=O)O)N2C(=O)[C@@H](NC(=O)/C(=N\OCC(=O)O)c3csc(N)n3)[C@H]2SC1 [CEFIXIME],0.25,0.125,≤ 0.008,≤ 0.008,0.015,0.015,0.25
COCC1=C(C(=O)O)N2C(=O)[C@@H](NC(=O)/C(=N\OC)c3csc(N)n3)[C@H]2SC1 [CEFPODOXIME],1,0.5,0.015,0.06,0.03,0.25,1
CO/N=C(\C(=O)N[C@@H]1C(=O)N2C(C(=O)O)=C(CSc3nc(=O)c(O)nn3C)CS[C@H]12)c1csc(N)n1 [CEFTRIAXONE],0.03,0.06,≤ 0.008,≤ 0.008,≤ 0.008,≤ 0.008,0.06
